Assay results published in US10495796B2, “Near-infrared cut filter” (AGC INC., priority 2012, dated 2019).

Assays:
[1] = Solubility of dye to organic solvent; type: physicochemical; settings: 50° C., mass % of the dye to the mass of the entire solution; for Solubility to organic solvent: MIBK: methyl isobutyl ketone
Procedure: Regarding the dyes (A11-1) to (A11-10) and (A11-20) to (A11-27) obtained above, solubility to organic solvent was evaluated as follows.
Three kinds of solvents, cyclohexanone, methyl isobutyl ketone (MIBK), toluene, were used as the organic solvent in the solubility test. Note that in Table 3, % is mass % of the dye to the mass of the entire solution. Further, the temperature of each organic solvent in the solubility test was 50° C.

[2] = Absorption characteristics: transmission spectrum of near-infrared absorbing layer of NIR filter (UV-visible spectrophotometer); type: physicochemical
Procedure: Further, the transmittance of the near-infrared absorbing layer can be measured by using an ultraviolet visible light spectrophotometer. For example, when the near-infrared absorbing layer is provided on a glass substrate, the transmittance is calculated by subtracting the transmittance of only the glass substrate. Note that the transmittance of light of the near-infrared absorbing layer refers to, unless otherwise stated, a ratio to light incident from a direction orthogonal to a main surface of a sample, the ratio of this light traveling straight inside the sample and transmitted to an opposite side. Further, when the transmittance is measured by making light incident from a direction other than the direction orthogonal to the main surface of the sample in the measurement of transmittance of light, an angle made by a straight line indicating the direction of the incident light to a line orthogonal to the main surface is called an incident angle.
In the condition (ii-3), the value calculated by nd(B)×(λa−λc) (hereinafter, this value may also be described as “Is value”) is a value to be an index indicating steepness of the absorption curve in the vicinity of the boundary between the visible light region and the near-infrared region with respect to a transmission spectrum of the near-infrared absorbing layer. When this value is 115 or less, the absorption curve in the vicinity of the boundary between the visible light region and the near-infrared region is steep with respect to the near-infrared absorbing layer, which can be said as preferable for the NIR filter.
That is, with respect to the transmission spectrum of the near-infrared absorbing layer, the smaller the difference (λa−λc) between the shortest wavelength λa with transmittance of 1% in the region of 650 nm to 800 nm and the wavelength λc with transmittance of 70% on a shorter wavelength side than the λa, the steeper the absorption curve in the vicinity of the boundary between the visible light region and the near-infrared region. Here, λa−λc also depends on a wavelength width having transmittance of 1% or less (λb−λa; λb is the longest wavelength with transmittance of 1% in the wavelength region of 650 nm to 800 nm). Accordingly, in order to compare and evaluate the steepness of the absorption curve in the above region of the transmission spectrum of the near-infrared absorbing layer, λb−λa is fixed to 30 nm. That is, λb−λa of the near-infrared absorbing layer which the present filter has is not limited to 30 nm.
Further, in the Is value, (λa−λc) is multiplied by the refractive index nd(B) of the transparent resin (B) contained in the near-infrared absorbing layer as a coefficient. This is to standardize the difference in steepness among resins.
Regarding transmittance (%/nm) of the NIR filters 1 to 109 obtained above, transmission spectra were measured and calculated by using an ultraviolet visible light spectrophotometer (U-4100 type spectrophotometer made by Hitachi High-Technologies Corporation). Analysis results of transmission spectra of the near-infrared absorbing layers which the NIR filters have are presented in Table 4, Table 5 and Table 6 for the NIR filters 1 to 25, 26 to 51, 52 to 75, respectively, and are presented in Table 7 and Table 8 for the NIR filters 76 to 94, 95 to 109, respectively. In Table 4 to Table 8, the ratios (parts by mass) of dyes to 100 parts by mass of the transparent resin (B) and film thicknesses of the near-infrared absorbing layers are described together.
Further, conditions of preferred transmission spectra of the near-infrared absorbing layers in the present filter and Is values obtained by the formula: nd(B)×(λa-λc) described in above (ii-3) are described in Table 4 to Table 8 together with λa in the condition (ii-1) and λb-λa in the condition (ii-2). Note that values described in Table 4 to Table 8 are values obtained by subtracting transmittance of a glass plate from transmittance of an NIR filter. […]

[3] = transparent resin acrylic resin BR50, nd(B) 1.56, film thickness 2.3 μm
[4] = transparent resin polycarbonate EP5000, nd(B) 1.63, film thickness 2.4 μm
[5] = transparent resin polycarbonate SP3810, nd(B) 1.63, film thickness 1.0 μm
[6] = transparent resin polycarbonate SP3810, nd(B) 1.63, film thickness 2.8 μm

Solubility to organic solvent: Cyclohexanone [1] [%< mass %] | Solubility to organic solvent: MIBK [1] | Solubility to organic solvent: Toluene [1] | 430 nm to 600 nm Average transmittance [2, 3] [%] | Is value (nd(B)×(λa-λc)) [2, 3] | λa [2, 3] [nm] | λa − λc [2, 3] [nm] | λb [2, 3] [nm] | λb − λa [2, 3] [nm] | λc [2, 3] [nm] | λmax [2, 3] [nm] | 430 nm to 600 nm Average transmittance [2, 4] [%] | Is value (nd(B)×(λa-λc)) [2, 4] | λa [2, 4] [nm] | λa − λc [2, 4] [nm] | λb [2, 4] [nm] | λb − λa [2, 4] [nm] | λc [2, 4] [nm] | λmax [2, 4] [nm] | 430 nm to 600 nm Average transmittance [2, 5] [%] | Structure (SMILES) | also measured
10 | 2.50% mass % | 10%< mass % | 95.1 | 110.9 | 689 | 71 | 719 | 30 | 618 | 706 | 96.5 | 111.0 | 694 | 68 | 724 | 30 | 626 | 711 | 97.3 | CCCC(CCC)C(=O)Nc1cc2c(cc1C1=C([O-])C(=c3cc4c(cc3NC(=O)C(CCC)CCC)=[N+](C)C(C)C4(C)C)C1=O)C(C)(C)C(C)N2C (stereo not drawn) [Example A11-1] | Is value (nd(B)×(λa-λc)) [2, 5]: 112.8; λa [2, 5]: 694 nm; λa − λc [2, 5]: 69 nm; λb [2, 5]: 724 nm; λb − λa [2, 5]: 30 nm; λc [2, 5]: 625 nm; λmax [2, 5]: 706 nm; 430 nm to 600 nm Average transmittance [2, 6]: 96%; Is value (nd(B)×(λa-λc)) [2, 6]: 112.8; λa [2, 6]: 695 nm; λa − λc [2, 6]: 69 nm; λb [2, 6]: 725 nm; λb − λa [2, 6]: 30 nm; λc [2, 6]: 626 nm; λmax [2, 6]: 711 nm
10 | 10%< mass % | 5.00% mass % | 95 | 112.4 | 689 | 72 | 719 | 30 | 617 | 706 | 96.2 | 112.6 | 694 | 69 | 724 | 30 | 625 | 711 | 96.1 | CCCCC(CC)C(=O)Nc1cc2c(cc1C1=C([O-])C(=c3cc4c(cc3NC(=O)C(CC)CCCC)=[N+](C)C(C)C4(C)C)C1=O)C(C)(C)C(C)N2C (stereo not drawn) [Example A11-2] | Is value (nd(B)×(λa-λc)) [2, 5]: 114.4; λa [2, 5]: 694 nm; λa − λc [2, 5]: 70 nm; λb [2, 5]: 724 nm; λb − λa [2, 5]: 30 nm; λc [2, 5]: 624 nm; λmax [2, 5]: 706 nm; 430 nm to 600 nm Average transmittance [2, 6]: 95.5%; Is value (nd(B)×(λa-λc)) [2, 6]: 112.8; λa [2, 6]: 694 nm; λa − λc [2, 6]: 69 nm; λb [2, 6]: 724 nm; λb − λa [2, 6]: 30 nm; λc [2, 6]: 625 nm; λmax [2, 6]: 710 nm
10 | 10%< mass % | 10%< mass % | 95 | 110.9 | 688 | 71 | 718 | 30 | 617 | 705 | 95.7 | 112.6 | 693 | 69 | 723 | 30 | 624 | 709 | 96.8 | CC(CCC(C(=O)Nc1cc2c(cc1C1=C([O-])C(=c3cc4c(cc3NC(=O)C(CCC(C)CC(C)(C)C)C(C)CC(C)(C)C)=[N+](C)C(C)C4(C)C)C1=O)C(C)(C)C(C)N2C)C(C)CC(C)(C)C)CC(C)(C)C (stereo not drawn) [Example A11-4] | Is value (nd(B)×(λa-λc)) [2, 5]: 112.8; λa [2, 5]: 693 nm; λa − λc [2, 5]: 69 nm; λb [2, 5]: 723 nm; λb − λa [2, 5]: 30 nm; λc [2, 5]: 624 nm; λmax [2, 5]: 705 nm; 430 nm to 600 nm Average transmittance [2, 6]: 95.9%; Is value (nd(B)×(λa-λc)) [2, 6]: 111.2; λa [2, 6]: 693 nm; λa − λc [2, 6]: 68 nm; λb [2, 6]: 723 nm; λb − λa [2, 6]: 30 nm; λc [2, 6]: 625 nm; λmax [2, 6]: 709 nm
10 | 1.00% mass % | 3.00% mass % |  |  |  |  |  |  |  |  |  |  |  |  |  |  |  |  |  | CCCC(C)C(=O)Nc1cc2c(cc1C1=C([O-])C(=c3cc4c(cc3NC(=O)C(C)CCC)=[N+](C)C(C)C4(C)C)C1=O)C(C)(C)C(C)N2C (stereo not drawn) [Example A11-10] | 
